How the values were obtained:
[1] = test system: airway-constriction reaction; test: Inhibitory effect on airway-constriction reaction (in vivo), modified Konzet-Lössler method, histamine-elicited; conditions: Cavia porcellus, iv; test compound 100 mg/2 ml/kg in 1% CMC through esophageal cannula; histamine 20 µg/kg i.v. at 15, 30, 60 and 120 minutes; anesthetized guinea pigs; read-out: Inhibitory rate (%) Histamine
Protocol: (§1) A group of 6 male Hartley albino guinea pigs (250 to 350 g) was anesthetized with pentobarbital, and the tracheae, esophagi, carotid arteries and jugular veins thereof were cannulated. The experiment was performed by connecting the tracheotomic cannula to a respirator incorporated into a circuit of a bronchospasm transducer (modified Konzet-Lössler method), arresting the spontaneous respiration of each guinea pig with choline chloride succinate (1 mg/kg i.v.) and then practicing artificial ventilation, and an airway-constriction reaction was determined by using an overflow rate of ventilation as an index. Acetylcholine (20 µg/kg) or histamine (20 µg/kg) was intravenously administered upon elapsed time of 15, 30, 60 and 120 minutes after a test compound (100 mg/2 ml/kg) suspended in 1% CMC was administered through the esophageal cannula, thereby observing the airway-constriction reaction elicited. For the sake of comparison, theophylline (100 mg/2 ml/kg) commonly and widely used in the treatment for asthma was used. The inhibitory effect on the airway-constriction reaction was expressed by a value calculated as an inhibitory rate (%). It turns out that all the compounds according to the present invention have an excellent inhibitory effect on airway constriction.

[2] = test system: airway-constriction reaction; test: Inhibitory effect on airway-constriction reaction (in vivo), modified Konzet-Lössler method, acetylcholine-elicited; conditions: Cavia porcellus, iv; test compound 100 mg/2 ml/kg in 1% CMC through esophageal cannula; acetylcholine 20 µg/kg i.v. at 15, 30, 60 and 120 minutes; anesthetized guinea pigs; read-out: Inhibitory rate (%) Acetylcholine
Protocol: as §1

trachea [3] = test: Tracheodilative effect (in vitro), Magnus method, trachea strips contracted with carbachol; conditions: Cavia porcellus; relaxation of guinea pig trachea strips contracted with 1 x 10^-6 M carbachol; maximum relaxation by 10^-4 M isoproterenol = 100%; read-out: pIC50 value Carbachol (converted)
Protocol: (§2) With respect to Compound 2, Compound 5, Compound 6, Compound 7 and Compound 16, the tracheodilative effect useful in treatment and/or prevention of respiratory diseases such as asthma was investigated by the Magnus method. A male Hartley albino guinea pig (250 to 300 g) was blow on the head and exsanguinated to death to enucleate its trachea. Strip specimens were prepared from the trachea. Each of the specimens was suspended in a Magnus tube filled with a Krebs-Henseleit solution kept at 37°C with supply of a mixed gas (95% O2, 5% CO2). A static tension of 1.0 g was loaded to record an isometric tension. Each of test compounds was cumulatively administered to the specimens separately contracted with 1 x 10^-6 M carbachol and 3 x 10^-6 M histamine to investigate its relaxing effect. After the cumulative administration, 10^-4 M isoproterenol was administered to identify the maximum relaxing effect on the trachea specimen. The maximum relaxation was regarded as 100%, and a negative logarithmic value of the concentration of the test compound, at which the specimen was relaxed by 50%, was calculated out, thereby regarding it as a pIC50 value. […]

trachea [4] = test: Tracheodilative effect (in vitro), Magnus method, trachea strips contracted with histamine; conditions: Cavia porcellus; relaxation of guinea pig trachea strips contracted with 3 x 10^-6 M histamine; maximum relaxation by 10^-4 M isoproterenol = 100%; read-out: pIC50 value Histamine (converted)
Protocol: as §2

trachea [5] = test: Tracheodilative effect (in vitro), Magnus method, enucleated trachea contracted with LTD4; conditions: Cavia porcellus; relaxation of enucleated guinea pig trachea contracted with LTD4 3 x 10^-8 M; read-out: pIC50 value LTD4 (converted)
Protocol: as §2
The pIC50 values of the compounds according to the present invention on contraction by LTD4 (concentration: 3 x 10^-8 M) were determined by using the enucleated trachea in accordance with the Magnus method in the same manner as in Test Example 1. It turns out that the compounds according to the present invention are effective on the contraction by this agent.

Compound: N#Cc1cnn2c3c(cnc12)CCN3C1CCCC1 [Compound 1, 3-cyano-8-cyclopentyl-6,7-dihydro-8H-pyrrolo[3,2-e]pyrazolo[1,5-a]pyrimidine]
- inhibition in vivo at 100 mg/kg [1]: 22.2%
- inhibition in vivo at 100 mg/kg [2]: 33.4%

Compound: CCC(C)N1CCc2cnc3c(C#N)cnn3c21 (stereo not shown) [Compound 2, 8-sec-butyl-3-cyano-6,7-dihydro-8H-pyrrolo[3,2-e]pyrazolo[1,5-a]pyrimidine]
- inhibition in vivo at 100 mg/kg [1]: 52.2%
- inhibition in vivo at 100 mg/kg [2]: 50%
- IC50 (trachea [3]): 19.1 µM
- IC50 (trachea [4]): 6.31 µM

Compound: N#Cc1cnn2c3c(c(Cl)nc12)CCN3C1CCCC1 [Compound 3, 5-chloro-3-cyano-8-cyclopentyl-6,7-dihydro-8H-pyrrolo[3,2-e]pyrazolo[1,5-a]pyrimidine]
- inhibition in vivo at 100 mg/kg [1]: 7.7%
- inhibition in vivo at 100 mg/kg [2]: 22.8%

Compound: CCC(C)N1CCc2c(Cl)nc3c(C#N)cnn3c21 (stereo not shown) [Compound 4, 8-sec-butyl-5-chloro-3-cyano-6,7-dihydro-8H-pyrrolo[3,2-e]pyrazolo[1,5-a]pyrimidine]
- inhibition in vivo at 100 mg/kg [1]: 24.7%
- inhibition in vivo at 100 mg/kg [2]: 33.2%

Compound: N#Cc1cnn2c3c(c(N)nc12)CCN3C1CCCC1 [Compound 5, 5-amino-3-cyano-8-cyclopentyl-6,7-dihydro-8H-pyrrolo[3,2-e]pyrazolo[1,5-a]pyrimidine]
- IC50 (trachea [5]): 4.07 µM
- inhibition in vivo at 100 mg/kg [1]: 52.9%
- inhibition in vivo at 100 mg/kg [2]: 32.1%
- IC50 (trachea [3]): 18.6 µM
- IC50 (trachea [4]): 12.6 µM

Compound: N#Cc1cnn2c3c(c(N)nc12)CCN3C1CCCCC1 [Compound 6, 5-amino-3-cyano-8-cyclohexyl-6,7-dihydro-8H-pyrrolo[3,2-e]pyrazolo[1,5-a]pyrimidine]
- IC50 (trachea [5]): 11.2 µM
- IC50 (trachea [3]): 22.4 µM
- IC50 (trachea [4]): 16.2 µM

Compound: CCC(C)N1CCc2c(N)nc3c(C#N)cnn3c21 (stereo not shown) [Compound 7, 5-amino-8-sec-butyl-3-cyano-6,7-dihydro-8H-pyrrolo[3,2-e]pyrazolo[1,5-a]pyrimidine]
- IC50 (trachea [5]): 3.72 µM
- inhibition in vivo at 100 mg/kg [1]: 49.8%
- inhibition in vivo at 100 mg/kg [2]: 36.5%
- IC50 (trachea [3]): 18.2 µM
- IC50 (trachea [4]): 15.5 µM

Compound: CC(C)(C)N1CCc2cnc3c(C#N)cnn3c21 [Compound 14, 8-tert-butyl-3-cyano-6,7-dihydro-8H-pyrrolo[3,2-e]pyrazolo[1,5-a]pyrimidine]
- inhibition in vivo at 100 mg/kg [1]: 8.7%
- inhibition in vivo at 100 mg/kg [2]: 40.4%

Compound: CC(C)(C)N1CCc2c(Cl)nc3c(C#N)cnn3c21 [Compound 15, 8-tert-butyl-5-chloro-3-cyano-6,7-dihydro-8H-pyrrolo[3,2-e]pyrazolo[1,5-a]pyrimidine]
- inhibition in vivo at 100 mg/kg [1]: 25.8%
- inhibition in vivo at 100 mg/kg [2]: 36.5%

Compound: CC(C)(C)N1CCc2c(N)nc3c(C#N)cnn3c21 [Compound 16, 5-amino-8-tert-butyl-3-cyano-6,7-dihydro-8H-pyrrolo[3,2-e]pyrazolo[1,5-a]pyrimidine]
- IC50 (trachea [3]): 23.4 µM
- IC50 (trachea [4]): 16.2 µM

Compound: Cn1c(=O)c2[nH]cnc2n(C)c1=O [Theophylline, theophylline, reference compound]
- IC50 (trachea [5]): 112 µM
- inhibition in vivo at 100 mg/kg [1]: 37.7%
- inhibition in vivo at 100 mg/kg [2]: 39.5%
- IC50 (trachea [3]): 2950 µM
- IC50 (trachea [4]): 977 µM

From patent EP0976754B1, “REMEDIES/PREVENTIVES FOR RESPIRATORY DISEASES” (POLA CHEMICAL INDUSTRIES, INC., priority 1997, dated 1998)
